# Data taken from PubChem BioAssay (NCI).
#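 Grown in 96-well plates, cells were treated for 48 hours with each compound at five concentrations. Insufficient inhibition: endpoint recorded as highest concentration tested. GI50 = concentration required for 50% inhibition of growth. TGI: concentration producing complete growth inhibition.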
# What was measured:
# Assay in all cases: DTP human tumour cell line panel, 48 h
# NCI-H226 lung = tested on: NCI-H226 lung
# NCI-H23 lung = tested on: NCI-H23 lung
# NCI-H460 lung = tested on: NCI-H460 lung
# NCI-H522 lung = tested on: NCI-H522 lung
# NCI/ADR-RES ovarian = tested on: NCI/ADR-RES ovarian
# OVCAR-3 ovarian = tested on: OVCAR-3 ovarian
# OVCAR-4 ovarian = tested on: OVCAR-4 ovarian
# OVCAR-5 ovarian = tested on: OVCAR-5 ovarian
# OVCAR-8 ovarian = tested on: OVCAR-8 ovarian
# PC-3 prostate = tested on: PC-3 prostate
# RPMI-8226 leukemia = tested on: RPMI-8226 leukemia
# RXF 393 renal = tested on: RXF 393 renal
# SF-268 CNS = tested on: SF-268 CNS
# SF-295 CNS = tested on: SF-295 CNS
# SF-539 CNS = tested on: SF-539 CNS
# SK-MEL-2 melanoma = tested on: SK-MEL-2 melanoma
# SK-MEL-28 melanoma = tested on: SK-MEL-28 melanoma
# SK-MEL-5 melanoma = tested on: SK-MEL-5 melanoma
# SK-OV-3 ovarian = tested on: SK-OV-3 ovarian
# SN12C renal = tested on: SN12C renal
# SNB-19 CNS = tested on: SNB-19 CNS
# SNB-75 CNS = tested on: SNB-75 CNS
# SR leukemia = tested on: SR leukemia
# SW-620 colon = tested on: SW-620 colon
# T-47D breast = tested on: T-47D breast
# TK-10 renal = tested on: TK-10 renal
# U251 CNS = tested on: U251 CNS
# UACC-257 melanoma = tested on: UACC-257 melanoma
# UACC-62 melanoma = tested on: UACC-62 melanoma
# UO-31 renal = tested on: UO-31 renal
compound,measurement,setting,value
Cn1cc(-c2cc(N)n3nc(-c4c[nH]c5ccccc45)cc3n2)c2cc(Cl)ccc21,TGI,NCI-H226 lung,47.1 µM
same,GI50,NCI-H23 lung,2.45 µM
same,TGI,NCI-H23 lung,7.38 µM
same,GI50,NCI-H460 lung,2.35 µM
same,TGI,NCI-H460 lung,5.45 µM
same,GI50,NCI-H522 lung,1.64 µM
same,TGI,NCI-H522 lung,3.43 µM
same,GI50,NCI/ADR-RES ovarian,2.85 µM
same,TGI,NCI/ADR-RES ovarian,9.09 µM
same,GI50,OVCAR-3 ovarian,4.75 µM
same,TGI,OVCAR-3 ovarian,29.6 µM
same,GI50,OVCAR-4 ovarian,7.3 µM
same,TGI,OVCAR-4 ovarian,29.7 µM
same,GI50,OVCAR-5 ovarian,2.09 µM
same,TGI,OVCAR-5 ovarian,4.81 µM
same,GI50,OVCAR-8 ovarian,3.53 µM
same,TGI,OVCAR-8 ovarian,14.2 µM
same,GI50,PC-3 prostate,3.15 µM
same,TGI,PC-3 prostate,11.4 µM
same,GI50,RPMI-8226 leukemia,3.42 µM
same,TGI,RPMI-8226 leukemia,29 µM
same,GI50,RXF 393 renal,2.47 µM
same,TGI,RXF 393 renal,8.46 µM
same,GI50,SF-268 CNS,5.21 µM
same,TGI,SF-268 CNS,26.6 µM
same,GI50,SF-295 CNS,1.87 µM
same,TGI,SF-295 CNS,3.79 µM
same,GI50,SF-539 CNS,1.81 µM
same,TGI,SF-539 CNS,3.66 µM
same,GI50,SK-MEL-2 melanoma,6.75 µM
same,TGI,SK-MEL-2 melanoma,24 µM
same,GI50,SK-MEL-28 melanoma,7.16 µM
same,TGI,SK-MEL-28 melanoma,19.9 µM
same,GI50,SK-MEL-5 melanoma,7.16 µM
same,TGI,SK-MEL-5 melanoma,19.7 µM
same,GI50,SK-OV-3 ovarian,15.9 µM
same,TGI,SK-OV-3 ovarian,43 µM
same,GI50,SN12C renal,5.3 µM
same,TGI,SN12C renal,18.8 µM
same,GI50,SNB-19 CNS,4.32 µM
same,TGI,SNB-19 CNS,16.3 µM
same,GI50,SNB-75 CNS,4 µM
same,TGI,SNB-75 CNS,18.3 µM
same,GI50,SR leukemia,0.857 µM
same,TGI,SR leukemia,> 100 µM
same,GI50,SW-620 colon,2 µM
same,TGI,SW-620 colon,3.92 µM
same,GI50,T-47D breast,4.44 µM
same,TGI,T-47D breast,20 µM
same,GI50,TK-10 renal,4.34 µM
same,TGI,TK-10 renal,15.7 µM
same,GI50,U251 CNS,2.01 µM
same,TGI,U251 CNS,4.44 µM
same,GI50,UACC-257 melanoma,10.6 µM
same,TGI,UACC-257 melanoma,23.5 µM
same,GI50,UACC-62 melanoma,5.36 µM
same,TGI,UACC-62 melanoma,18.7 µM
same,GI50,UO-31 renal,4.22 µM
same,TGI,UO-31 renal,16.9 µM
